Values of other authors in US12290525B2, “5 alpha dihydrotestosterone formulations and associated methods of use and treatment” (priority 2022, dated 2025).

Experiments:
[1] = target: estrogen receptor (ER) subtype ERβ (Homo sapiens, UniProt Q92731)
estrogen receptor (ER) subtype ERβ, sequence (Q92731 whole entry): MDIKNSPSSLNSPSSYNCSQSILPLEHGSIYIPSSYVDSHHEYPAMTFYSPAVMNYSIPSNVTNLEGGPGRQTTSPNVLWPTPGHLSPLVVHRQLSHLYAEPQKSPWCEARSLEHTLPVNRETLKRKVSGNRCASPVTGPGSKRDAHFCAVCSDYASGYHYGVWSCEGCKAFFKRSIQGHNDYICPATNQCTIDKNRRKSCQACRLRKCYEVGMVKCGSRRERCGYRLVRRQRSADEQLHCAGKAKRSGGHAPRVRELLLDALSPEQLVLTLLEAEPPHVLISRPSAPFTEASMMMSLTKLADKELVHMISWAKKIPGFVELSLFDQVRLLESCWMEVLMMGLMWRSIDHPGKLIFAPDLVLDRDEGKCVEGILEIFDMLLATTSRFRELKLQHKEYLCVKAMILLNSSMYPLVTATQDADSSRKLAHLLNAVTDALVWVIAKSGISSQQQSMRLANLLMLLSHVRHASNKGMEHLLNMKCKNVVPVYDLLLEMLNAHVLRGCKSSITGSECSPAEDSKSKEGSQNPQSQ

| SMILES | activity at the GABAA receptor (GABAA receptor) | activity at ERβ [1] |
| --- | --- | --- |
| C[C@]12CC[C@@H](O)C[C@@H]1CC[C@@H]1[C@@H]2CC[C@]2(C)[C@@H](O)CC[C@@H]12 [3α-Androstanediol, 3α-androstanediol] | potent positive allosteric modulator | – |
| C[C@]12CC[C@H](O)C[C@@H]1CC[C@@H]1[C@@H]2CC[C@]2(C)[C@@H](O)CC[C@@H]12 [3β-androstanediol] | – | potent and selective agonist |
